# Tests used:
# [1] = target: T1, Heliothis virescens cyclodiene resistant chloride channel (Heliothis virescens, UniProt O18468); assay: Two-electrode voltage clamp recordings of Xenopus oocytes injected with pIVY12 mRNA; type: cell-based; settings: for gross effect of known agonist / antagonist on the channel: similar assays
# T1 construct: in vitro transcribed pIVY12 mRNA injected into Xenopus oocytes, homomeric channel
# T1 sequence (O18468 30-496): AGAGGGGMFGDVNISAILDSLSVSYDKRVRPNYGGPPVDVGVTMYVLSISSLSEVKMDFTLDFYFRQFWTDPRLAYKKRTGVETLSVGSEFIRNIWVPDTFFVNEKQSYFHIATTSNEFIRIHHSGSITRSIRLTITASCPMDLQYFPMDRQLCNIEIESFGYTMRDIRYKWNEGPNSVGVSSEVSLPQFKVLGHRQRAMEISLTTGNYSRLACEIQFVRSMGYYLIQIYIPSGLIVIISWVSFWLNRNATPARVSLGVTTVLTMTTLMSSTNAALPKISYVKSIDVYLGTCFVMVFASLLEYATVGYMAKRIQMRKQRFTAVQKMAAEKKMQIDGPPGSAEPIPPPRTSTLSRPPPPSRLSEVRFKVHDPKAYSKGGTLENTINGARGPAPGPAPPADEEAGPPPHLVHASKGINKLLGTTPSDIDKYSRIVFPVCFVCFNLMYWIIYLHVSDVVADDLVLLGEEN
# Procedure: (§1) Messenger RNA was produced from the cDNA template of pIVY12 described in Example I by in vitro transcription with the Ambion mMESSAGE mMACHINE IN VITRO TRANSCRIPTION KIT™ (Ambion, Inc.) The mRNA was injected into oocytes by the following procedure.
# (§2) Frogs were anesthetized in a 2 gram/liter solution of 3-amino benzoic acid ethyl ester for thirty minutes, after which oocytes were surgically removed from the abdominal cavity. Follicles were digested by collagenase treatment under sterile conditions by standard methods. Oocytes were injected with 50 nl of mRNA by glass electrodes.
# (§3) Following a 24 to 48 hour incubation, two-electrode voltage clamp recordings were made. Recordings were made using a Dagan TEV200 voltage clamp interfaced with a MacLab4 data acquisition system running the MacLab Chart data acquisition/analysis software. Oocytes were positioned under a dissecting scope under constant perfusion with ND-96 standard saline using a Razel syringe perfusion pump, model A99-FY at 93.9 cc/hr. Glass electrodes (A-M Systems, Inc., 1.5 mm×0.86 mm) were filled with 3M KCl and resistance ([…]) was measured to be between 0.7 and 1.5 mega ohms. Both electrodes were inserted into the oocyte at opposite sides, the resting potential was recorded and the voltage clamp turned on. Oocytes were held at a resting potential between -70 and -50 mV. Control responses of GABA were obtained by stopping the perfusion of saline and perfusing with a known concentration of GABA in ND-96 with 0.1% DMSO. The average of several GABA applications was taken as the maximal chloride current for that particular GABA dose. The effect of 10 micromolar GABA on the lepidopteran GABA gated chloride channel expressed in Xenopus oocytes is depicted in FIG. 4. […] In particular, the Heliothis virescens cyclodiene resistant chloride channel is about ten times less sensitive to block by fipronil than the Drosophila Rdl chloride channel.
# [2] = system: Heliothis virescens cyclodiene resistant chloride channel; assay: as above; type: cell-based; settings: agonized by GABA
# Procedure: as §1, §2, §3
# [3] = target: T2, Drosophila Rdl chloride channel (Drosophila melanogaster, UniProt P25123); settings: 10 micromoles of picrotoxinin; cited from earlier work
# T2 sequence (P25123 45-606): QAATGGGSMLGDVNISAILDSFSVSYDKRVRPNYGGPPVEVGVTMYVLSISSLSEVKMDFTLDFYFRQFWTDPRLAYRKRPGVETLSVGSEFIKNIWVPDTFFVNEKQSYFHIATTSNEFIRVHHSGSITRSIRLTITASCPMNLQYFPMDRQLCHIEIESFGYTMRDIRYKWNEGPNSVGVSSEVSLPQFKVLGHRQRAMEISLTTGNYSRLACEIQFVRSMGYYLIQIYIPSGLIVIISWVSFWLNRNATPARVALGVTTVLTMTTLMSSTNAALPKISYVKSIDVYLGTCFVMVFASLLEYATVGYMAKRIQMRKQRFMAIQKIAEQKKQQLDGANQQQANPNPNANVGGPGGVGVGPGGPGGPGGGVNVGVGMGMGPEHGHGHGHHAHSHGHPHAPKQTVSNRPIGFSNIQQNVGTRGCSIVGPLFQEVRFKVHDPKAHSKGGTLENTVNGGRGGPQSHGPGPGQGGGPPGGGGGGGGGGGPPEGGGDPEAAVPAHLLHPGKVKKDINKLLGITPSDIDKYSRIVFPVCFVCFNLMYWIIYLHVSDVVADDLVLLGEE
# [4] = target: T3, Heliothis GABA gated chloride channel (Heliothis virescens, UniProt O18468); assay: Whole cell patch clamp recordings of permanently transformed Drosophila SH1 cell lines (pIVY17); type: cell-based; settings: SH1 cells, induced by 10 μM cadmium chloride for 48 hours, FIG. 7
# T3 sequence (O18468 30-496): T1 sequence (O18468 30-496)
# Description: To verify that expression of cDNA encoding the GABA gated chloride channel subunit results in production of a functional GABA gated chloride channel, hole cell voltage clamp recordings were made at thirty hours post infection. […] The results presented in this example indicate that expression of DNA encoding a lepidopteran GABA gated chloride channel subunit in Sf9 cells results in a functional GABA gated chloride channel.
# Drosophila cell line SH1 was transformed with plasmid pIVY17 using lipofectin obtained from GIBCO-BRL following the manufacturer's instructions. Selection of insect cell transformants was accomplished with hygromycin at a concentration of 200 μg/ml. The Heliothis GABA gated chloride channel expression was induced by 10 μM cadmium chloride added to the growth medium for 48 hours prior to electrophysiological readings. Whole cell voltage patch clamping recordings were performed on a number of cell lines as described in Example III.
# [5] = target: T4, Heliothis virescens cyclodiene resistant GABA gated chloride channel (Heliothis virescens, UniProt O18468); assay: Whole cell voltage clamp recordings of Sf9 cells infected with recombinant baculovirus Elise13; type: cell-based; settings: 1×10^-3 M GABA, thirty hours post infection, FIG. 3
# T4 sequence (O18468 30-496): T1 sequence (O18468 30-496)
# Description: A BamHI/XhoI DNA fragment from plasmid pIVY12 described in Example 1 containing the complete coding sequence of the Heliothis virescens cyclodiene resistant GABA gated chloride channel subunit was cloned into the baculovirus transfer vector pBacPac8 (Clontech). The resulting vector, pIVY13, contains cDNA encoding the Heliothis virescens cyclodiene resistant GABA gated chloride channel subunit under the control of the polyhedrin promoter. The 8.0 kb vector, PIVY13, consists of the Heliothis sequence of pIVY12 cloned into the BamHI/XhoI site of pBacPac8 and is depicted in FIG. 2. Spodoptera frugiperda 9 (Sf9) cells were cotransfected by pIVY13 and wild type Autographa californica nuclear polyhedrosis virus (AcMNPV) using the lipofectin procedure. In transfer vector pIVY13, flanking AcMNPV sequences allowed recombination with the viral DNA, thus resulting in the transfer of the expression cassette of the Heliothis cDNA and the polyhedrin promoter to the polyhedrin locus of the viral DNA. The recombinant virus thus generated was designated Elise13. Viral stocks of Elise13 were generated by standard procedures described by O'Reilly et al. (1992) Baculovirus Expression Vectors, A Laboratory Manual, W. H. Freeman and Company. Sf9 cells were infected with Elise13 at a multiplicity of infection of 5 plaque forming units (PFU) per cell by standard procedures. […]
smiles,measurement,setting,value
NCc1cc(=O)[nH]o1 [muscimol],gross effect of known agonist / antagonist on the channel,[1],exhibited the predicted gross effects
C=C(C)[C@@H]1[C@H]2OC(=O)[C@@H]1[C@]1(O)C[C@H]3O[C@]34C(=O)O[C@H]2[C@]14C [picrotoxinin],block of the Heliothis channel,[1]; 10 micromoles of picrotoxinin,fifty
same,gross effect of known agonist / antagonist on the channel,[1],exhibited the predicted gross effects
same,reduction of sensitivity to block relative to Drosophila Rdl chloride channel,[2],more than 100 times
same,block of Drosophila Rdl,[3],nearly complete block
"NCCCC(=O)O [GABA, gamma-amino butyric acid]",functional effect on the GABA gated chloride channel,"[1]; 10 micromolar GABA, FIG. 4",exhibits the predicted gross functional effect
same,functional effect on the GABA gated chloride channel (flux of chloride ion),[4],exhibits the predicted gross functional effect
same,functional effect on the GABA gated chloride channel (flux of chloride ion),[5],exhibits the gross functional effect on the GABA gated chloride channel
N#Cc1nn(-c2c(Cl)cc(C(F)(F)F)cc2Cl)c(N)c1[S+]([O-])C(F)(F)F (stereo not drawn) [fipronil],reduction of sensitivity to block relative to Drosophila Rdl chloride channel,[2],about ten
